Source: PMC7156458, “Synthetic biology based construction of biological activity-related library of fungal decalin-containing diterpenoid pyrones” (Nature Communications, 2020)

Target: Aβ42 (Homo sapiens, UniProt P05067)
Assay: Th-T (thioflavin-T) assay of Aβ42 aggregation
Assay type: biochemical
Conditions: for Th-T fluorescence of Aβ42 (sheet Fig. 7a), mean of three wells: head suffix _50 (concentration 50); for Th-T assay plate reading, mean of three wells (Supplementary Fig. 47): source data, Ab alone and No Ab as controls; for Th-T fluorescence, mean of three wells: Supplementary Fig. 47 source data

Sequence of Aβ42 (P05067 672-713): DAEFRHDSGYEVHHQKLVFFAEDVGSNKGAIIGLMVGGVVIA

C=C1CCC2C(C)(CCC=C(C)C)C(O)CCC2(C)C1Cc1c(OC)oc(CO)c(C(=O)OC)c1=O (stereo not drawn) [Compound 13]
Th-T fluorescence of Aβ42 (sheet Fig. 7a), mean of three wells (reading M73): 0.4729
Th-T fluorescence of Aβ42 (sheet Fig. 7a), mean of three wells (reading M74): 0.4696
Th-T fluorescence of Aβ42 (sheet Fig. 7a), mean of three wells (reading M75): 0.4709
Th-T fluorescence of Aβ42 (sheet Fig. 7a), mean of three wells (reading M76): 0.4704
Th-T fluorescence of Aβ42 (sheet Fig. 7a), mean of three wells (reading M77): 0.4733
Th-T fluorescence of Aβ42 (sheet Fig. 7a), mean of three wells (reading M78): 0.4716
Th-T fluorescence of Aβ42 (sheet Fig. 7a), mean of three wells (reading M79): 0.4696
Th-T fluorescence of Aβ42 (sheet Fig. 7a), mean of three wells (reading M80): 0.4702
Th-T fluorescence of Aβ42 (sheet Fig. 7a), mean of three wells (reading M81): 0.4727
Th-T fluorescence of Aβ42 (sheet Fig. 7a), mean of three wells (reading M82): 0.4723
Th-T fluorescence of Aβ42 (sheet Fig. 7a), mean of three wells (reading M83): 0.4714
Th-T fluorescence of Aβ42 (sheet Fig. 7a), mean of three wells (reading M84): 0.4716
Th-T assay plate reading, mean of three wells (Supplementary Fig. 47) (measurement M1): 0.2585
Th-T assay plate reading, mean of three wells (Supplementary Fig. 47) (measurement M2): 0.2393
Th-T assay plate reading, mean of three wells (Supplementary Fig. 47) (measurement M3): 0.2328
Th-T assay plate reading, mean of three wells (Supplementary Fig. 47) (measurement M4): 0.2253
Th-T assay plate reading, mean of three wells (Supplementary Fig. 47) (measurement M5): 0.2121
Th-T assay plate reading, mean of three wells (Supplementary Fig. 47) (measurement M6): 0.2004
Th-T assay plate reading, mean of three wells (Supplementary Fig. 47) (measurement M7): 0.1938
Th-T assay plate reading, mean of three wells (Supplementary Fig. 47) (measurement M8): 0.1852
Th-T assay plate reading, mean of three wells (Supplementary Fig. 47) (measurement M9): 0.1809
Th-T assay plate reading, mean of three wells (Supplementary Fig. 47) (measurement M10): 0.1743
Th-T assay plate reading, mean of three wells (Supplementary Fig. 47) (measurement M11): 0.1726
Th-T assay plate reading, mean of three wells (Supplementary Fig. 47) (measurement M12): 0.1685
Th-T assay plate reading, mean of three wells (Supplementary Fig. 47) (measurement M13): 0.1699
Th-T assay plate reading, mean of three wells (Supplementary Fig. 47) (measurement M14): 0.1695
Th-T assay plate reading, mean of three wells (Supplementary Fig. 47) (measurement M15): 0.1669
Th-T assay plate reading, mean of three wells (Supplementary Fig. 47) (measurement M16): 0.1721
Th-T fluorescence, mean of three wells (Fig. 7a) (reading M107, compound at 10 (head suffix _10)): 1.546
Th-T fluorescence, mean of three wells (Fig. 7a) (reading M107, compound at 20 (head suffix _20)): 1.033
Th-T fluorescence, mean of three wells (Fig. 7a) (reading M107, compound at 50 (head suffix _50)): 0.4755
Th-T fluorescence, mean of three wells (Fig. 7a) (reading M108, compound at 10 (head suffix _10)): 1.544
Th-T fluorescence, mean of three wells (Fig. 7a) (reading M108, compound at 20 (head suffix _20)): 1.036
Th-T fluorescence, mean of three wells (Fig. 7a) (reading M108, compound at 50 (head suffix _50)): 0.4722
Th-T fluorescence, mean of three wells (Fig. 7a) (reading M109, compound at 10 (head suffix _10)): 1.548
Th-T fluorescence, mean of three wells (Fig. 7a) (reading M109, compound at 20 (head suffix _20)): 1.038
Th-T fluorescence, mean of three wells (Fig. 7a) (reading M109, compound at 50 (head suffix _50)): 0.476
Th-T fluorescence, mean of three wells (Fig. 7a) (reading M110, compound at 10 (head suffix _10)): 1.549
Th-T fluorescence, mean of three wells (Fig. 7a) (reading M110, compound at 20 (head suffix _20)): 1.043
Th-T fluorescence, mean of three wells (Fig. 7a) (reading M110, compound at 50 (head suffix _50)): 0.4785
Th-T fluorescence, mean of three wells (Fig. 7a) (reading M111, compound at 10 (head suffix _10)): 1.553
Th-T fluorescence, mean of three wells (Fig. 7a) (reading M111, compound at 20 (head suffix _20)): 1.041
Th-T fluorescence, mean of three wells (Fig. 7a) (reading M111, compound at 50 (head suffix _50)): 0.4751
Th-T fluorescence, mean of three wells (Fig. 7a) (reading M112, compound at 10 (head suffix _10)): 1.549
Th-T fluorescence, mean of three wells (Fig. 7a) (reading M112, compound at 20 (head suffix _20)): 1.035
Th-T fluorescence, mean of three wells (Fig. 7a) (reading M112, compound at 50 (head suffix _50)): 0.4724
Th-T fluorescence, mean of three wells (Fig. 7a) (reading M113, compound at 10 (head suffix _10)): 1.549
Th-T fluorescence, mean of three wells (Fig. 7a) (reading M113, compound at 20 (head suffix _20)): 1.03
Th-T fluorescence, mean of three wells (Fig. 7a) (reading M113, compound at 50 (head suffix _50)): 0.473
Th-T fluorescence, mean of three wells (Fig. 7a) (reading M114, compound at 10 (head suffix _10)): 1.5404
Th-T fluorescence, mean of three wells (Fig. 7a) (reading M114, compound at 20 (head suffix _20)): 1.03
Th-T fluorescence, mean of three wells (Fig. 7a) (reading M114, compound at 50 (head suffix _50)): 0.4728
Th-T fluorescence, mean of three wells (Fig. 7a) (reading M115, compound at 10 (head suffix _10)): 1.549
Th-T fluorescence, mean of three wells (Fig. 7a) (reading M115, compound at 20 (head suffix _20)): 1.033
Th-T fluorescence, mean of three wells (Fig. 7a) (reading M115, compound at 50 (head suffix _50)): 0.477
Th-T fluorescence, mean of three wells (Fig. 7a) (reading M116, compound at 10 (head suffix _10)): 1.546
Th-T fluorescence, mean of three wells (Fig. 7a) (reading M116, compound at 20 (head suffix _20)): 1.033
Th-T fluorescence, mean of three wells (Fig. 7a) (reading M116, compound at 50 (head suffix _50)): 0.4778
Th-T fluorescence, mean of three wells (Fig. 7a) (reading M117, compound at 10 (head suffix _10)): 1.5424
Th-T fluorescence, mean of three wells (Fig. 7a) (reading M117, compound at 20 (head suffix _20)): 1.029
Th-T fluorescence, mean of three wells (Fig. 7a) (reading M117, compound at 50 (head suffix _50)): 0.4747
Th-T fluorescence, mean of three wells (Fig. 7a) (reading M118, compound at 10 (head suffix _10)): 1.549
Th-T fluorescence, mean of three wells (Fig. 7a) (reading M118, compound at 20 (head suffix _20)): 1.031
Th-T fluorescence, mean of three wells (Fig. 7a) (reading M118, compound at 50 (head suffix _50)): 0.4759
Th-T fluorescence, mean of three wells (Fig. 7a) (reading M119, compound at 10 (head suffix _10)): 1.551
Th-T fluorescence, mean of three wells (Fig. 7a) (reading M119, compound at 20 (head suffix _20)): 1.035
Th-T fluorescence, mean of three wells (Fig. 7a) (reading M119, compound at 50 (head suffix _50)): 0.4763
Th-T fluorescence, mean of three wells (Fig. 7a) (reading M120, compound at 10 (head suffix _10)): 1.5465
Th-T fluorescence, mean of three wells (Fig. 7a) (reading M120, compound at 20 (head suffix _20)): 1.04
Th-T fluorescence, mean of three wells (Fig. 7a) (reading M120, compound at 50 (head suffix _50)): 0.4773
Th-T fluorescence, mean of three wells (Fig. 7a) (reading M121, compound at 10 (head suffix _10)): 1.546
Th-T fluorescence, mean of three wells (Fig. 7a) (reading M121, compound at 20 (head suffix _20)): 1.029
Th-T fluorescence, mean of three wells (Fig. 7a) (reading M121, compound at 50 (head suffix _50)): 0.4753
Th-T fluorescence, mean of three wells (Fig. 7a) (reading M122, compound at 10 (head suffix _10)): 1.544
Th-T fluorescence, mean of three wells (Fig. 7a) (reading M122, compound at 20 (head suffix _20)): 1.028
Th-T fluorescence, mean of three wells (Fig. 7a) (reading M122, compound at 50 (head suffix _50)): 0.4755
Th-T fluorescence, mean of three wells (Fig. 7a) (reading M123, compound at 10 (head suffix _10)): 1.5409
Th-T fluorescence, mean of three wells (Fig. 7a) (reading M123, compound at 20 (head suffix _20)): 1.032
Th-T fluorescence, mean of three wells (Fig. 7a) (reading M123, compound at 50 (head suffix _50)): 0.4791
Th-T fluorescence, mean of three wells (Fig. 7a) (reading M124, compound at 10 (head suffix _10)): 1.548
Th-T fluorescence, mean of three wells (Fig. 7a) (reading M124, compound at 20 (head suffix _20)): 1.037
Th-T fluorescence, mean of three wells (Fig. 7a) (reading M124, compound at 50 (head suffix _50)): 0.4785
Th-T fluorescence, mean of three wells (Fig. 7a) (reading M125, compound at 10 (head suffix _10)): 1.541
Th-T fluorescence, mean of three wells (Fig. 7a) (reading M125, compound at 20 (head suffix _20)): 1.031
Th-T fluorescence, mean of three wells (Fig. 7a) (reading M125, compound at 50 (head suffix _50)): 0.4776
Th-T fluorescence, mean of three wells (Fig. 7a) (reading M126, compound at 10 (head suffix _10)): 1.541
Th-T fluorescence, mean of three wells (Fig. 7a) (reading M126, compound at 20 (head suffix _20)): 1.031
Th-T fluorescence, mean of three wells (Fig. 7a) (reading M126, compound at 50 (head suffix _50)): 0.4736
Th-T fluorescence, mean of three wells (Fig. 7a) (reading M127, compound at 10 (head suffix _10)): 1.546
Th-T fluorescence, mean of three wells (Fig. 7a) (reading M127, compound at 20 (head suffix _20)): 1.033
Th-T fluorescence, mean of three wells (Fig. 7a) (reading M127, compound at 50 (head suffix _50)): 0.4763
Th-T fluorescence, mean of three wells (Fig. 7a) (reading M128, compound at 10 (head suffix _10)): 1.55
Th-T fluorescence, mean of three wells (Fig. 7a) (reading M128, compound at 20 (head suffix _20)): 1.029
Th-T fluorescence, mean of three wells (Fig. 7a) (reading M128, compound at 50 (head suffix _50)): 0.4748
Th-T fluorescence, mean of three wells (time-course reading M97): 1.044
Th-T fluorescence, mean of three wells (time-course reading M98): 1.046
Th-T fluorescence, mean of three wells (time-course reading M99): 1.04
Th-T fluorescence, mean of three wells (time-course reading M100): 1.04
Th-T fluorescence, mean of three wells (time-course reading M101): 1.043
Th-T fluorescence, mean of three wells (time-course reading M102): 1.042
Th-T fluorescence, mean of three wells (time-course reading M103): 1.041
Th-T fluorescence, mean of three wells (time-course reading M104): 1.042
Th-T fluorescence, mean of three wells (time-course reading M105): 1.041
Th-T fluorescence, mean of three wells (time-course reading M106): 1.044
Th-T fluorescence, mean of three wells (time-course reading M107): 1.043
Th-T fluorescence, mean of three wells (time-course reading M108): 1.038
Th-T fluorescence, mean of three wells (time-course reading M109): 1.039
Th-T fluorescence, mean of three wells (time-course reading M110): 1.044
Th-T fluorescence, mean of three wells (time-course reading M111): 1.042
Th-T fluorescence, mean of three wells (time-course reading M112): 1.039
Th-T fluorescence, mean of three wells (time-course reading M113): 1.042
Th-T fluorescence, mean of three wells (time-course reading M114): 1.037
Th-T fluorescence, mean of three wells (time-course reading M115): 1.041
Th-T fluorescence, mean of three wells (time-course reading M116): 1.037
